In ChEMBL document CHEMBL1201862, “PubChem BioAssay data set” (2004):
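Interpolation was linear, between the two tested concentrations surrounding the appropriate level; five concentrations were tested over 48 hours in 96-well plates. GI50 marks 50% less growth.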 Active and inactive are the calls of the source. Cut-off read from the data, not from the text of the source: active = GI50 up to about 1.1 µM and inactive = higher.

Columns and labels:
Assay in all cases: NCI anticancer screen, dose series, 48 h
DMS-114 = system: DMS-114
DLD-1 = system: DLD-1
XF498 = system: XF498
KM-20L2 = system: KM-20L2
DMS-273 = system: DMS-273
RXF 631 = system: RXF 631
LXFL 529 = system: LXFL 529
BT-549 = system: BT-549
786-0 = system: 786-0

Row | Compound | GI50 (DMS-114) | GI50 (DLD-1) | GI50 (XF498) | GI50 (KM-20L2) | GI50 (DMS-273) | GI50 (RXF 631) | GI50 (LXFL 529) | GI50 (BT-549) | GI50 (786-0)
1 | O=C(O)c1cn2c3c(cc(N4CCN(CCO)CC4)cc3c1=O)SCC2 | 51.3 µM (inactive) | > 100 µM (inactive) | 23.2 µM (inactive) | > 100 µM (inactive) | > 100 µM (inactive) | – | – | – | –
2 | O=C(NC(Cc1ccc(I)cc1)C(=O)O)c1ccc(Cl)cc1 (configuration not stated) | – | > 100 µM (inactive) | > 80.9 µM (inactive) | > 100 µM (inactive) | > 100 µM (inactive) | – | – | – | –
3 | Cc1ccc(C)c(NC(=O)C(=O)C(C(=O)c2ccc3ccccc3c2)C2OC(=O)c3ccccc32)c1 (configuration not stated) | 7.21 µM (inactive) | 23 µM (inactive) | 14.5 µM (inactive) | 21.3 µM (inactive) | 3.87 µM (inactive) | 16.1 µM (inactive) | 7.59 µM (inactive) | – | –
4 | CCN1c2ccccc2NC(=S)c2c(-c3ccccc3)n[nH]c21 | – | – | – | – | – | – | – | 45.5 µM (inactive) | –
5 | OC1CCSc2ccccc21 (configuration not stated) | > 100 µM (inactive) | > 100 µM (inactive) | > 100 µM (inactive) | > 100 µM (inactive) | > 100 µM (inactive) | – | > 100 µM (inactive) | – | –
6 | O=S(=O)(c1ccccc1)C1CC(c2nc3ccccc3[nH]2)=NO1 (configuration not stated) | – | – | – | – | – | – | – | > 100 µM (inactive) | –
7 | Cc1cn(C2CCN(CC3COC(C)(C)O3)O2)c(=O)[nH]c1=O (configuration not stated) | – | – | – | – | – | – | – | > 100 µM (inactive) | > 100 µM (inactive)
8 | CCOC(=O)c1nc2ccccc2nc1Nc1ccc(C(=O)OC)s1 | – | – | – | – | – | – | – | > 100 µM (inactive) | > 100 µM (inactive)
9 | COc1ccc2c(-c3cc4ccccc4o3)cc(=O)oc2c1 | – | > 100 µM (inactive) | 21.3 µM (inactive) | > 100 µM (inactive) | 61.8 µM (inactive) | 36.9 µM (inactive) | > 76.2 µM (inactive) | 34.1 µM (inactive) | 25.8 µM (inactive)
10 | N#CC1(C#N)N[C@@H](c2ccsc2)[C@H]2C(=O)N(c3ccccc3)C(=O)[C@H]21 | – | – | – | – | – | – | – | 97.7 µM (inactive) | > 100 µM (inactive)
11 | C[n+]1c2ccccc2n2c3ccccc3c(NCCCn3ccnc3)c(C#N)c21 | – | – | – | – | – | – | – | 17.6 µM (inactive) | 2.04 µM (inactive)
12 | CC[C@@]1(O)C[C@H](OC2CC(N(C)C)C(O)C(C)O2)c2c(cc3c(c2O)C(=O)c2c(O)ccc(O)c2C3=O)[C@H]1C(=O)OC (some centres not stated) | 0.119 µM (active) | 0.0514 µM (active) | 0.106 µM (active) | 0.0702 µM (active) | 0.0213 µM (active) | – | – | – | –
13 | Nc1ccn(C2OC(CO)C(O)C2(F)F)c(=O)n1 (configuration not stated) | – | – | – | – | – | – | – | 0.33 µM (active) | 0.055 µM (active)
14 | COC(=O)c1ccccc1Nc1ccccc1C(=O)OC | – | – | – | – | – | – | – | > 100 µM (inactive) | 53.5 µM (inactive)
15 | CCOC(=O)c1c(NC(=O)Nc2ccccc2)c(C(N)=O)c2n1CCCCC2 | – | – | – | – | – | – | – | > 100 µM (inactive) | > 100 µM (inactive)
16 | CC(C)(C)OC(=O)NC(Cc1ccc(OCc2ccccc2)cn1)C(=O)N1CCCC1 (configuration not stated) | – | – | – | – | – | – | – | 31.1 µM (inactive) | > 100 µM (inactive)
17 | NNC(N)Nc1ccccc1 (configuration not stated) | – | – | – | – | – | – | – | > 100 µM (inactive) | –
18 | O=C(Nc1ccc(Cl)cc1)C(=O)C(C(=O)c1ccccc1-c1ccccc1)C1OC(=O)c2ccccc21 (configuration not stated) | 16.7 µM (inactive) | 29 µM (inactive) | 17.9 µM (inactive) | 23.7 µM (inactive) | 29 µM (inactive) | – | 16 µM (inactive) | – | –

Row | Compound | GI50 (DMS-114) | GI50 (DLD-1) | GI50 (XF498) | GI50 (KM-20L2) | GI50 (DMS-273) | GI50 (RXF 631) | GI50 (LXFL 529) | GI50 (BT-549) | GI50 (786-0)
19 | CCCCCCCCCCCCCCCCNCC(O)CN (configuration not stated) | 5.69 µM (inactive) | 1.87 µM (inactive) | 7.29 µM (inactive) | 2.65 µM (inactive) | 3.96 µM (inactive) | – | – | – | –
20 | COc1cc(C2S/C(=C/c3ccccc3)C(=O)N2c2cccc(NC(C)=O)c2)cc(OC)c1OC (configuration not stated) | – | – | – | – | – | – | – | 24.7 µM (inactive) | –
21 | O=C(N/C=C1\C(=O)Oc2ccccc2C1=O)NC1CCCCC1 | 45.3 µM (inactive) | – | 21.4 µM (inactive) | > 100 µM (inactive) | > 100 µM (inactive) | – | 63.1 µM (inactive) | – | –
22 | Cc1ccc(C2=C(C#N)C(N)OC3=C2COc2ccccc23)cc1 (configuration not stated) | – | – | – | – | – | – | – | > 100 µM (inactive) | –
23 | O=C1/C(=C\c2cccc(Oc3ccccc3)c2)SC(c2ccccc2)N1Cc1ccccc1 (configuration not stated) | – | – | – | – | – | – | – | 25.2 µM (inactive) | 34.8 µM (inactive)
24 | CCOC(=O)c1ccc(Nc2nc3cc(C(F)(F)F)ccc3nc2C(=O)OCC)cc1 | – | – | – | – | – | – | – | 72.6 µM (inactive) | 25.4 µM (inactive)
25 | O=C(O)C1=C(CO)Oc2cc3c(cc2C1c1ccc2c(c1)OCO2)OCO3 (configuration not stated) | > 100 µM (inactive) | > 100 µM (inactive) | > 100 µM (inactive) | > 100 µM (inactive) | > 100 µM (inactive) | > 100 µM (inactive) | – | – | –
26 | c1ccc2c(c1)N=C(NC1CCCCC1)CCN2 | – | – | – | – | – | – | – | > 100 µM (inactive) | > 100 µM (inactive)
27 | Nc1cccc2nnccc12 | – | – | – | – | – | – | – | > 100 µM (inactive) | > 100 µM (inactive)
28 | CC(C)=CC1CC(=O)C1(C)Sc1ccccc1 (configuration not stated) | 16.6 µM (inactive) | 52.8 µM (inactive) | 37.7 µM (inactive) | 36.3 µM (inactive) | – | 28 µM (inactive) | 42.7 µM (inactive) | – | 50.7 µM (inactive)
29 | O/N=C1/CCCCC1NO (configuration not stated) | – | – | – | – | – | – | – | – | > 100 µM (inactive)
30 | CC(=O)O[C@H]1C[C@]2(C)C(CCC3O[C@@]32C)[C@@]2(CC(c3ccoc3)OC2O)[C@@H]1C (some centres not stated) | – | – | – | – | – | – | – | 40 µM (inactive) | > 100 µM (inactive)
31 | Cc1cc(O)c(C(C)C)cc1SC#N | – | – | – | – | – | – | – | 19.6 µM (inactive) | –
32 | O=S(=O)(O)c1ccc(/N=N\c2ccc(/N=N\c3ccc(/C=C/c4ccc(/N=[N+](/[O-])c5ccc(/C=C/c6ccc(/N=N/c7ccc(/N=N\c8ccc(S(=O)(=O)O)cc8)cc7)cc6S(=O)(=O)O)c(S(=O)(=O)O)c5)cc4S(=O)(=O)O)c(S(=O)(=O)O)c3)cc2)cc1 | > 100 µM (inactive) | > 100 µM (inactive) | > 100 µM (inactive) | > 100 µM (inactive) | > 100 µM (inactive) | – | – | – | –
33 | CC(=O)OC[C@H]1[C@@H]2C(CC[C@]13CO3)OC(=O)CC(C)[C@]2(C)CCc1ccoc1 (some centres not stated) | – | – | – | – | – | – | – | > 100 µM (inactive) | –
34 | COc1cc(O)c2c(c1)C(=O)c1cc3c(c(O)c1C2=O)C(OC1OC(C)C(O)C(O)C1OC)C(OC)C(C)(O)C3=O (configuration not stated) | 1.61 µM (inactive) | 2.22 µM (inactive) | 3.95 µM (inactive) | 1.1 µM (active) | 0.644 µM (active) | – | – | – | –
35 | O=Cc1c(Cn2ccnc2)c2cc([N+](=O)[O-])ccc2n1Cc1ccccc1 | > 100 µM (inactive) | > 100 µM (inactive) | > 100 µM (inactive) | 89.9 µM (inactive) | > 100 µM (inactive) | – | – | – | –
36 | CC[C@@]1(O)C(=O)OCc2c1cc1n(c2=O)Cc2cc3c(N)cccc3nc2-1 [9-AMINOCAMPTOTHECIN] | < 0.01 µM (active) | 0.566 µM (active) | 0.143 µM (active) | 0.0643 µM (active) | < 0.01 µM (active) | 0.0375 µM (active) | 0.244 µM (active) | 0.0684 µM (active) | < 0.01 µM (active)
